Assay results: patent US20130065818A1, “Arylamide Compounds And Compositions And Uses Thereof” (POLYMEDIX, priority 2006, published 2013)
In brackets after ≈: the same amount, converted by molar mass. Like-named read-outs stand apart in the source and are kept apart here.

Legend:
Serratia marcescens = experiment: MIC, 25 ocular isolates, broth microdilution (Example 8); format: cell-based
Protocol: (§1) • Mueller-Hinton Broth in tubes was inoculated with 25 ocular isolates of Staphylococcus aureus fluoroquinolone-susceptible, Staphylococcus aureus fluoroquinolone-resistant, Staphylococcus epidermidis (Coagulase-negative Staphylococcus) fluoroquinolone-susceptible, Staphylococcus epidermidis (Coagulase-negative Staphylococcus) fluoroquinolone-resistant, Pseudomonas aeruginosa and Serratia marcescens, plus two controls (Staphylococcus aureus and E. coli) and incubated at 37° C. overnight on a shaker set at 250 rpm.
(§2) On the day of testing, a 640 μg/ml (1280 μg/ml for Serratia marcescens and Pseudomonas aeruginosa) concentration was prepared from a 1% stock solution in 0.01% acetic acid, 0.2% BSA in polypropylene tubes.
(§3) Serial doubling dilutions in 0.01% acetic acid, 0.2% BSA in 96 well polypropylene plates, which are used as reservoirs for the inoculation of the test plates, were carried out to obtain serial dilutions of test agents at 10 times the required test concentrations: 640, 320, 160, 80, 40, 20, 10, 5, 2.5, 1.25, and 0.625 μg/ml (1280, 640, 320, 160, 80, 40, 20, 10, 5, 2.5, and 1.25 μg/ml for Serratia marcescens and Pseudomonas aeruginosa).
(§4) Ten μl of diluted 10×test agents was added to each well of one row of the 96 well polypropylene plates from column 2 to column 12 (column 1 is a control for bacteria alone, with no peptide). Test agent concentrations in columns 2-12 were as follows: 64, 32, 16, 8, 4, 2, 1, 0.5, 0.25, 0.125, and 0.0625 μg/ml (128, 64, 32, 16, 8, 4, 2, 1, 0.5, 0.25, and 0.125 μg/ml for Serratia marcescens and Pseudomonas aeruginosa). The same peptide was in each of the 8 rows. One plate contained dilutions of one test agent and 8 bacterial isolates.
(§5) On the day of testing, the overnight bacterial broth cultures of Staphylococcus aureus fluoroquinolone-susceptible, Staphylococcus aureus fluoroquinolone-resistant, Staphylococcus epidermidis (Coagulase-negative Staphylococcus) fluoroquinolone-susceptible, Staphylococcus epidermidis (Coagulase-negative Staphylococcus) fluoroquinolone-resistant, Serratia marcescens, and Pseudomonas aeruginosa, plus two controls (Staphylococcus aureus and E. coli) were diluted in 5 ml of trypticase soy broth to yield turbidity equal to a 0.5 McFarland standard. The final inoculum for MIC testing for Staphylococcus aureus fluoroquinolone-susceptible, Staphylococcus aureus fluoroquinolone-resistant, Staphylococcus epidermidis (Coagulase-negative Staphylococcus) fluoroquinolone-susceptible, Staphylococcus epidermidis (Coagulase-negative Staphylococcus) fluoroquinolone-resistant, Serratia marcescens, and Pseudomonas aeruginosa was achieved by placing 0.05 ml of the turbidity adjusted sample to 5 ml of Mueller-Hinton broth.
(§6) Ninety μl of the bacterial suspensions was dispensed in each well from column 1 to column 12. Each bacterial isolate was placed in one row of a 96 well polypropylene plate containing the test agents. The plates were placed on shaker at 15 minutes at room temperature, and then incubated at 37° C. overnight. MICs were determined visually as the lowest concentration of drug that inhibits visible bacterial growth.

[1] = test system: Staphylococcus epidermidis (Coagulase-negative Staphylococcus) fluoroquinolone-resistant; experiment: as above; format: cell-based
Protocol: as §1, §2, §3, §4, §5, §6

N=C(N)NCCCCC(=O)Nc1cc(C(F)(F)F)cc(NC(=O)c2cnc(C(=O)Nc3cc(C(F)(F)F)cc(NC(=O)CCCCNC(=N)N)c3SCCN)cn2)c1SCCN [Oligomer 5]
MIC50 (Serratia marcescens; 25 isolates, Row 13, >128 was Replaced with 256): 256 µg/mL (≈ 279 µM) | MIC90 (Serratia marcescens; 25 isolates, Row 22, >128 was Replaced with 256): 256 µg/mL (≈ 279 µM) | Range of MICs (Serratia marcescens; 25 isolates, Summary of Results, >128 was Replaced with 256): 8 to 256 µg/mL | MIC (Serratia marcescens; Serratia marcescens, 25 ocular isolates, read-out: Median MIC): 128 µg/mL (≈ 140 µM) | MIC (Serratia marcescens; Serratia marcescens, isolate 1—K1681, read-out: MIC): > 128 µg/mL | MIC (Serratia marcescens; Serratia marcescens, isolate 2—K1674, read-out: MIC): > 128 µg/mL | MIC (Serratia marcescens; Serratia marcescens, isolate 3—K1558, read-out: MIC): > 128 µg/mL | MIC (Serratia marcescens; Serratia marcescens, isolate 4—K1538, read-out: MIC): > 128 µg/mL | MIC (Serratia marcescens; Serratia marcescens, isolate 5—K1503, read-out: MIC): > 128 µg/mL | MIC (Serratia marcescens; Serratia marcescens, isolate 6—K1216, read-out: MIC): > 128 µg/mL | MIC (Serratia marcescens; Serratia marcescens, isolate 7—K1496, read-out: MIC): > 128 µg/mL | MIC (Serratia marcescens; Serratia marcescens, isolate 8—K1481, read-out: MIC): > 128 µg/mL | MIC (Serratia marcescens; Serratia marcescens, isolate 9—K1470, read-out: MIC): > 128 µg/mL | MIC (Serratia marcescens; Serratia marcescens, isolate 10—K1468, read-out: MIC): > 128 µg/mL | MIC (Serratia marcescens; Serratia marcescens, isolate 11—K1467, read-out: MIC): > 128 µg/mL | MIC (Serratia marcescens; Serratia marcescens, isolate 12—K1462, read-out: MIC): > 128 µg/mL | MIC (Serratia marcescens; Serratia marcescens, isolate 13—K1461, read-out: MIC): 128 µg/mL (≈ 140 µM) | MIC (Serratia marcescens; Serratia marcescens, isolate 14—K1413, read-out: MIC): > 128 µg/mL | MIC (Serratia marcescens; Serratia marcescens, isolate 15—K1402, read-out: MIC): 8 µg/mL (≈ 8.72 µM) | MIC (Serratia marcescens; Serratia marcescens, isolate 16—K1357, read-out: MIC): > 128 µg/mL | MIC (Serratia marcescens; Serratia marcescens, isolate 17—K1351, read-out: MIC): 64 µg/mL (≈ 69.8 µM) | MIC (Serratia marcescens; Serratia marcescens, isolate 18—K1327, read-out: MIC): > 128 µg/mL | MIC (Serratia marcescens; Serratia marcescens, isolate 19—K1321, read-out: MIC): > 128 µg/mL | MIC (Serratia marcescens; Serratia marcescens, isolate 20—K1315, read-out: MIC): > 128 µg/mL | MIC (Serratia marcescens; Serratia marcescens, isolate 21—K1306, read-out: MIC): > 128 µg/mL | MIC (Serratia marcescens; Serratia marcescens, isolate 22—K1290, read-out: MIC): > 128 µg/mL | MIC (Serratia marcescens; Serratia marcescens, isolate 23—K1265, read-out: MIC): > 128 µg/mL | MIC (Serratia marcescens; Serratia marcescens, isolate 24—K1263, read-out: MIC): > 128 µg/mL | MIC (Serratia marcescens; Serratia marcescens, isolate 25—K1239, read-out: MIC): > 128 µg/mL | MIC (Serratia marcescens; Serratia marcescens, n=25 per group, read-out: Median MIC): 256 µg/mL (≈ 279 µM) | MIC50 (Serratia marcescens; Serratia marcescens, 25 isolates, Summary of Results, >128 was Replaced with 256, read-out: MIC50): 256 µg/mL (≈ 279 µM) | MIC90 (Serratia marcescens; Serratia marcescens, 25 isolates, Summary of Results, >128 was Replaced with 256, read-out: MIC90): 256 µg/mL (≈ 279 µM) | MIC (Serratia marcescens; Serratia marcescens, 25 isolates, Summary of Results, >128 was Replaced with 256, read-out: Median MIC): 256 µg/mL (≈ 279 µM) | MIC50 (Serratia marcescens; n=25 per group): 256 µg/mL (≈ 279 µM) | MIC90 (Serratia marcescens; n=25 per group): 256 µg/mL (≈ 279 µM) | Range of MICs (Serratia marcescens; n=25 per group): 8 to 256 µg/mL | MIC50 ([1]; 25 isolates, Row 13): 0.125 µg/mL (≈ 0.136 µM) | MIC90 ([1]; 25 isolates, Row 22): 0.25 µg/mL (≈ 0.273 µM) | Range of MICs ([1]; 25 isolates, Summary of Results, <0.0625 was Replaced with 0.03125): 0.03125 to 0.5 µg/mL | MIC ([1]; Staphylococcus epidermidis, 25 ocular isolates, read-out: Median MIC): ≤ 0.25 µg/mL | MIC ([1]; Staphylococcus epidermidis, isolate 1—E515, read-out: MIC): 0.125 µg/mL (≈ 0.136 µM) | MIC ([1]; Staphylococcus epidermidis, isolate 2—E514, read-out: MIC): 0.125 µg/mL (≈ 0.136 µM) | MIC ([1]; Staphylococcus epidermidis, isolate 3—E513, read-out: MIC): 0.125 µg/mL (≈ 0.136 µM) | MIC ([1]; Staphylococcus epidermidis, isolate 4—E510, read-out: MIC): 0.125 µg/mL (≈ 0.136 µM) | MIC ([1]; Staphylococcus epidermidis, isolate 5—E509, read-out: MIC): 0.125 µg/mL (≈ 0.136 µM) | MIC ([1]; Staphylococcus epidermidis, isolate 6—E508, read-out: MIC): 0.125 µg/mL (≈ 0.136 µM) | MIC ([1]; Staphylococcus epidermidis, isolate 7—E505, read-out: MIC): 0.125 µg/mL (≈ 0.136 µM) | MIC ([1]; Staphylococcus epidermidis, isolate 8—E503, read-out: MIC): 0.125 µg/mL (≈ 0.136 µM) | MIC ([1]; Staphylococcus epidermidis, isolate 9—E502, read-out: MIC): 0.25 µg/mL (≈ 0.273 µM) | MIC ([1]; Staphylococcus epidermidis, isolate 10—E499, read-out: MIC): 0.25 µg/mL (≈ 0.273 µM) | MIC ([1]; Staphylococcus epidermidis, isolate 11—E498, read-out: MIC): 0.125 µg/mL (≈ 0.136 µM) | MIC ([1]; Staphylococcus epidermidis, isolate 12—E494, read-out: MIC): 0.125 µg/mL (≈ 0.136 µM) | MIC ([1]; Staphylococcus epidermidis, isolate 13—E493, read-out: MIC): 0.125 µg/mL (≈ 0.136 µM) | MIC ([1]; Staphylococcus epidermidis, isolate 14—E485, read-out: MIC): 0.125 µg/mL (≈ 0.136 µM) | MIC ([1]; Staphylococcus epidermidis, isolate 15—E487, read-out: MIC): < 0.0625 µg/mL | MIC ([1]; Staphylococcus epidermidis, isolate 16—E486, read-out: MIC): 0.125 µg/mL (≈ 0.136 µM) | MIC ([1]; Staphylococcus epidermidis, isolate 17—E480, read-out: MIC): 0.125 µg/mL (≈ 0.136 µM) | MIC ([1]; Staphylococcus epidermidis, isolate 18—E475, read-out: MIC): 0.125 µg/mL (≈ 0.136 µM) | MIC ([1]; Staphylococcus epidermidis, isolate 19—E471, read-out: MIC): 0.125 µg/mL (≈ 0.136 µM) | MIC ([1]; Staphylococcus epidermidis, isolate 20—E458, read-out: MIC): 0.125 µg/mL (≈ 0.136 µM) | MIC ([1]; Staphylococcus epidermidis, isolate 21—E452, read-out: MIC): 0.5 µg/mL (≈ 0.545 µM) | MIC ([1]; Staphylococcus epidermidis, isolate 22—E450, read-out: MIC): 0.125 µg/mL (≈ 0.136 µM) | MIC ([1]; Staphylococcus epidermidis, isolate 23—E440, read-out: MIC): 0.125 µg/mL (≈ 0.136 µM) | MIC ([1]; Staphylococcus epidermidis, isolate 24—E446, read-out: MIC): < 0.0625 µg/mL | MIC ([1]; Staphylococcus epidermidis, isolate 25—E444, read-out: MIC): 0.25 µg/mL (≈ 0.273 µM) | MIC ([1]; Staphylococcus epidermidis, n=25 per group, read-out: Median MIC): 0.125 µg/mL (≈ 0.136 µM) | MIC50 ([1]; Staphylococcus epidermidis, 25 isolates, Summary of Results, read-out: MIC50): 0.125 µg/mL (≈ 0.136 µM) | MIC90 ([1]; Staphylococcus epidermidis, 25 isolates, Summary of Results, read-out: MIC90): 0.25 µg/mL (≈ 0.273 µM) | MIC ([1]; Staphylococcus epidermidis, 25 isolates, Summary of Results, read-out: Median MIC): 0.125 µg/mL (≈ 0.136 µM) | MIC50 ([1]; n=25 per group): 0.125 µg/mL (≈ 0.136 µM) | MIC90 ([1]; n=25 per group): 0.25 µg/mL (≈ 0.273 µM) | Range of MICs ([1]; n=25 per group): 0.03125 to 0.5 µg/mL
